We go through one molecule from article PMC11960969, “Mdga2 deficiency leads to an aberrant activation of BDNF/TrkB signaling that underlies autism-relevant synaptic and behavioral changes in mice” (PLOS Biology, 2025).

One experiment concerns TrkB signaling. Description: Time course of TrkB signaling inhibition in cerebrum after i.p. ANA-12 (immunoblotting). The following applies: 0.5 mg/kg i.p., WT and Mdga2-/- mice, S4A Fig. In kind it is in vivo, mouse. The method, then: Equal protein amounts of total lysates from cells or mouse tissues were subjected to SDS-PAGE and immunoblotted with antibodies indicated. For Co-IP, 1 mg of protein lysates were incubated with antibodies indicated and Protein G Agarose (ThermoFisher, Cat# 20399) beads at 4 °C overnight, and immunoprecipitated proteins were then subjected to SDS-PAGE and immunoblotting. Uncropped immunoblotting images are shown in S1 Raw Images.
ANA-12 was dissolved in saline containing 10% DMSO to a final concentration of 0.5 mg/kg and intraperitoneally administered into male mice. For chronic treatment, ANA-12 was administered to 3-week-old male mice at twice/week for 3 weeks until mice reached 6 weeks of age. […]
Supplementary file pbio.3003047.s004.tif: S4 Fig Acute ANA-12 treatment temporarily rescues social deficits in Mdga2 ^+/− mice. […] (C–G) Mice were analyzed for their total travel distance in the open field test (C), their discrimination index in the novel location recognition test (D), their time spent self-grooming and bouts of self-grooming (E), their sniffing time in the social affiliation test (F), and their sociability and social novelty preferences in the three-chamber test (G). n = 15 mice per group. […] P-values were determined by two-way ANOVA with Tukey’s multiple comparisons test. ns: not significant, *p < 0.05, **p < 0.01, ***p < 0.001, ns: not significant. […]
(Immunoblotting shows a protein as a band on a membrane.)

The test system of experiment [1] is AMPAR and NMDAR (evoked EPSCs). Description: Evoked AMPAR- and NMDAR-mediated EPSCs and AMPAR/NMDAR ratio in hippocampal slices. The arrangement: species or system mouse.
For experiment [2], the system named is mice. Description: Open field test. The experiment is classed as in vivo, mouse. As for the experimental part: (§1) Six- to eight-week-old male mice were subjected to various behavioral tests. Mice were allowed to acclimatize in the testing room for 1 h prior to each test. Data were recorded and analyzed using Smart 3.0 video tracking system (Panlab, Harvard Apparatus).
Mice were gently placed in the center of an open field apparatus (40 × 40 × 40 cm), and allowed for a 10-min period of free movement. Total distance traveled and time spent in center were analyzed.

For experiment [3], the system named is TrkB signaling (pTrkB, pAkt, pmTOR). The experiment is described as follows: Immunoblotting of TrkB signaling in hippocampus / brain of treated mice. The experiment is classed as in vivo, mouse. The following applies: AAV-Mdga2 shRNA mice, n = 4, Fig 6E and 6H.
Experiment [4] relates to mice. The experiment is described as follows: Social affiliation test. The experiment is classed as in vivo, mouse. The following applies: Mdga2+/- mice. As for the experimental part:
as §1
The test procedure was similar to that described previously. Briefly, a cylinder (8.5 cm in diameter) with a gender-matched reference mouse confined was placed at a specific location in an open field (40 cm in diameter). Tested mice were allowed to move freely in the open field for 7 min and their sniffing time with the reference mice was analyzed.

Experiment [5] deals with CA1 pyramidal neurons (mEPSC, mIPSC). The experiment is described as follows: Whole-cell recording of mEPSCs and mIPSCs in hippocampal slices. Further details: species or system mouse. The note with it: chronic 0.5 mg/kg i.p.

Consider `O=C(Nc1ccccc1C(=O)NC1CCCCNC1=O)c1cc2ccccc2s1` (stereo not shown) [ANA-12, reference compound], for which the “time of main TrkB signaling inhibition after treatment” value in the experiment on TrkB signaling lay within 16 to 24 h. Besides, in experiment [1], the “elevated AMPAR/NMDAR response ratios” value is given as “effectively attenuated upon chronic ANA-12 treatment”. For the same molecule, the “elevated evoked AMPAR-mediated EPSCs” value in experiment [1] (Mdga2+/- mice, chronic 0.5 mg/kg i.p., n = 20-21 cells from 3 mice, Fig 5J) is “effectively attenuated upon chronic ANA-12 treatment”. In addition, the locomotor activity entry is reported as “did not affect the locomotor activity” in the experiment with mice [2] (Mdga2+/- mice, chronic 0.5 mg/kg i.p. twice per week 3 weeks, Test 1 Interaction F(1,56) = 0.2753, p = 0.6019, Test 2 F(1,56) = 0.2774, p = 0.6005) and “did not affect locomotor activity” with mice [2] (acute: 0.5 mg/kg i.p. once daily 3 days, Test 1 Interaction F(1,56) = 0.3413, p = 0.5614, Test 2 F(1,56) = 0.1904, p = 0.6643). Besides, the “elevated TrkB signaling” value in experiment [3] is “reversed the elevated TrkB signaling”. The “social preference (social affiliation)” value in the experiment on mice [4] (acute 0.5 mg/kg i.p. 3 days, acute Test 1 (1 day): Interaction F(1,56) = 7.214, p = 0.0095) was “significantly higher social preference compared to controls in acute Test 1”. Moreover, the impaired social affiliation result in the experiment on mice [4] (chronic 0.5 mg/kg i.p., Test 1 (1 week) Interaction F(1,56) = 10.07, p = 0.0024, Test 2 (5 weeks) F(1,56) = 4.906, p = 0.0309) is “significantly improved impaired social affiliation in Mdga2^ +/− mice in both chronic Test 1 and chronic Test 2”. Also, the “increased mEPSC amplitude and frequency” value in experiment [5] (Mdga2+/- mice, CA1, n = 14 cells from 3 mice, Interaction F(1,52) = 6.023, p = 0.0175, 5.282, p = 0.0256) is “reversed the increased mEPSC amplitude and frequency”. Also, in experiment [5] (hippocampal slices CA1, n = 15 cells from 3 mice, Interaction F(1,56) = 0.5436, p = 0.4640, 0.0127, p = 0.9106), the “mIPSC frequency or amplitude” value is “nor did chronic ANA-12 treatment affect mIPSC frequency or amplitude”.
